79 compounds from the METLIN SMRT retention time set (Domingo-Almenara et al. 2019) can be followed below.

The data set is described as follows: gradient 5% acetonitrile 3 min, to 50% in 2 min, to 85% in 15 min, held 3 min, 100 µL/min. As to conditions: column: Zorbax Extend-C18 2.1 x 50 mm; eluents: water / acetonitrile, 0.1% formic acid. A digest of the protocol:
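Values are retention times taken from adduct peaks that software picked and an analyst inspected. The pure standards were run as mixtures of ~100 molecules on HPLC linked to a quadrupole time-of-flight mass spectrometer, in positive and negative ionization mode. A Zorbax Extend-C18 column (2.1 × 50 mm, 1.8 μm) was used at 100 μL/min with water and acetonitrile, each including 0.1% formic acid.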
`CCc1onc(C)c1C1CCCN1C(=O)c1ccccc1F` (centres undefined) had an RP-LC retention time of 775 s. In turn, `CCc1noc(-c2ccnc(-n3cnc(C(=O)NC4CCCCC4)c3)c2)n1` returned an RP-LC retention time of 915 s. In the case of `COc1cc(C)c(Br)cc1S(=O)(=O)N1CCC(C(N)=O)CC1`, the RP-LC retention time was 697 s. In turn, `CCCn1nc(C)cc1CN(C)c1ccc(NC(=O)CC)cc1C(=O)O` returned an RP-LC retention time of 618 s.

In the case of `Cc1nn2c(CNS(=O)(=O)c3c(C)nn(C)c3C)c(C)nc2s1`, the RP-LC retention time turned out to be 596 s. As to `Cc1cccc(-c2noc(C3CCCN3C(=O)Nc3ccccc3)n2)c1` (centres undefined), the RP-LC retention time was found to be 980 s. As for `Cc1ccc2nc(C(=O)N3CCN(c4ccc(Cl)cc4)CC3)cn2c1`, the RP-LC retention time came out at 738 s.

In turn, `COC(=O)Cn1c(C)cc(=O)n2nc(-c3ccc(Cl)cc3)nc12` gave an RP-LC retention time of 793 s.

For `Cc1cc(=O)n(CC(=O)N2CCc3ccccc32)c(N2CCc3ccccc3C2)n1`, the RP-LC retention time came to 825 s.

Turning to `Fc1ccccc1-c1noc(-c2nc(-c3ccncc3)no2)n1`, the RP-LC retention time was found to be 951 s. Under `COC(=O)c1cn(Cc2cccc(C)c2)c2nc(C)ccc2c1=O` stands 854 s. Regarding `Cc1ccccc1CNC(=O)C1(C)CCCN(C(=O)Nc2ccccc2Cl)C1` (centres undefined), the RP-LC retention time came to 1010 s.

In the case of `O=C(Cn1cnc2nc(N3CCCC(C(=O)NC4CC4)C3)sc2c1=O)NC1CCCCC1` (centres undefined), the RP-LC retention time was 652 s.

Regarding `O=C(c1ccc(Cl)s1)N1CCN(CC(O)c2cccs2)CC1` (centres undefined), the RP-LC retention time is 572 s. Next, `Cc1ccc2nc(C(=O)N3CCN(c4ccccc4Cl)CC3)cn2c1`: 748 s; `Cn1c(=O)oc2ccc(C(=O)Nc3nc4ccccc4s3)cc21`: 843 s; `CC(C)c1ccc(NC(=O)C2CC(=O)N(CCc3c[nH]c4ccc(Cl)cc34)C2)cc1` (centres undefined): 983 s. In the case of `CCCOc1nc2ccccc2nc1N1CCCC(C(=O)NCc2cccc(C)c2)C1` (centres undefined), the RP-LC retention time is 1220 s. Next, `CCc1cccc(Nc2c(C(=O)N3CCOCC3)cnc3nc(C)ccc23)c1`: 617 s; `OC1CCOC2(CCN(Cc3ccccc3OC(F)(F)F)CC2)C1` (centres undefined): 602 s. `Cc1ccc2c(Nc3cc(F)ccc3C)c(-c3nc(C)no3)cnc2n1` had an RP-LC retention time of 784 s. For the compound `Cc1ccccc1CNC(=O)c1cn(-c2cc(-c3nc(C4CC4)no3)ccn2)cn1`, the RP-LC retention time was 982 s. Next, `CN(C)C[C@@H]1CN(Cc2cccnc2)C[C@H]1NC(=O)C1(c2ccccc2)CC1`: 557 s. Next, `COc1ccc(-n2cc(C(=O)OCCc3ccccn3)c3cc(OC)c(OC)cc3c2=O)cc1`: 681 s; `CCOc1ccc(S(=O)(=O)Nc2ccc(-c3cn4ccc(C)nc4n3)cc2)cc1`: 661 s. As to `CCN(CC)C(=O)c1ccc(-c2nc3cc(NS(=O)(=O)c4ccc(Cl)cc4)ccc3n2C)cc1`, the RP-LC retention time worked out at 735 s. Under `COc1ccc(-c2nc(-c3cn(Cc4ccc(C)cc4)nn3)no2)cc1OC` stands 961 s; under `Cc1ccc(CNC(=O)CN2C(=O)CCn3nc(-c4cn(C)c5ccccc45)cc32)o1`, 806 s; under `CCc1nc(-c2csc(S(=O)(=O)N3CCC(C(=O)Nc4cccc(Cl)c4C)CC3)c2)no1`, 984 s. Next, `COc1cc(NC(=O)c2ccccc2)c(OC)cc1NC(=O)C=C(C)C`: 887 s.

Turning to `Cc1ccsc1CN1CCc2[nH]nc(C(=O)N(C)C)c2C1`, the RP-LC retention time was 559 s. Compound `Cc1ccc(N2CC(c3noc(-c4ccc(C(C)(C)C)cc4)n3)CC2=O)cc1` (centres undefined) yielded an RP-LC retention time of 1310 s. On to `COc1ccc(-c2c(C)nn3c(C)c(C(=O)OC(C)C)nnc23)cc1`, for which the RP-LC retention time turned out to be 1010 s. Under `CCn1ccc(C(=O)N2CCN(c3cc(-c4ccc(Cl)cc4)[nH]n3)CC2)n1` stands 827 s; under `Cc1ccc(NC(=O)C2CCc3sc(C(=O)N4CCOCC4)cc3C2)cc1` (centres undefined), 842 s; under `CS(=O)(=O)N(C1CCOCC1)C1CN(C(=O)CCc2c[nH]c3ccccc23)C1`, 678 s.

`Cc1cc(S(=O)(=O)N2CC=C(c3cn(C)c4ncccc34)CC2)ccc1F`: the RP-LC retention time came out at 1050 s. In turn, `OCCN(Cc1ccccc1)CC(O)COc1cccc2ccccc12` (centres undefined) displayed an RP-LC retention time of 601 s.

Turning to `N#CC1=CN(c2ccc(F)c(F)c2)c2ccc(F)cc2S1(=O)=O`, the RP-LC retention time was 934 s.

`CC(C)(C)NC(=O)NC1CCN(C(=O)C2CCCC2)C1` (centres undefined) had an RP-LC retention time of 678 s.

Turning to `Cc1cc(C)cc(C(=O)N2CCCC(C(=O)NC3CCCCCC3)C2)c1` (centres undefined), the RP-LC retention time was 955 s. For the compound `Cc1ccc(N2CCC(NS(=O)(=O)c3ccccc3F)C2=O)cc1` (centres undefined), the RP-LC retention time was found to be 894 s. `Cc1ccc(S(=O)(=O)N2CCC3(CC2)CC(C)(O)CCO3)cc1` (centres undefined) came in with an RP-LC retention time of 806 s. The compound `CCCCOc1ccc(C(=O)NCc2ccco2)cc1` gave an RP-LC retention time of 865 s. Under `COc1ccccc1NC(=O)c1cnc2c(c1)c(=O)n(C)c(=O)n2-c1ccccc1` stands 922 s; under `Cc1cc(C)nc(NS(=O)(=O)c2ccc(NC(=O)NC3CCCCC3)cc2)n1`, 686 s; under `Cc1ccc(NC(=O)Cn2nc(N3CCCC(C)C3)c3ccccc3c2=O)cc1C` (centres undefined), 1240 s. Under `COc1cc(NC(=O)Cn2nc3n(c2=O)CCCCC3)cc(OC)c1` stands 704 s; under `Cn1c(=O)oc2cc(-c3noc(-c4cccc(Br)c4)n3)ccc21`, 1190 s; under `CC1=C(c2ccccc2)S(=O)(=O)N=C1N1CCCN(C(=O)c2ccc(F)c(F)c2)CC1`, 900 s. Next, `Cn1nc(-c2nnc(-c3ccc(F)cc3)o2)c2c1CCN(S(=O)(=O)c1ccccc1F)C2`: 937 s; `COc1ccc(CC(=O)N2CC(c3nc(C)no3)C3(CCOCC3)C2)cc1` (centres undefined): 712 s.

With `CCCCN(C)C(=O)Cn1c(C2CC(=O)N(Cc3ccccc3)C2)nc2ccccc21` (centres undefined), the RP-LC retention time stood at 742 s. Next, `Cc1ccc(CNS(=O)(=O)c2ccc(-c3nnc(C4CC4)o3)o2)o1`: 816 s; `COc1ccc(OC)c(S(=O)(=O)N2CC(=O)N(C3CCCC3)C3(CCCCC3)C2)c1`: 1090 s. Under `CC(C)n1c(CCNC(=O)c2ccc(C#N)cc2)nc2cccnc21` stands 639 s; under `Cc1ccc2c(=O)c(C(=O)N3CCCC3)cn(CC(=O)Nc3ccc(C)c(C)c3)c2n1`, 733 s. Under `CC(C)N1CCn2cc(S(=O)(=O)Nc3ccc(C#N)cc3)cc2C1=O` stands 719 s; under `CC(C)c1ccc(NC(=O)C2CCN(S(=O)(=O)c3ccc4c(c3)CCCC(=O)N4)CC2)cc1`, 883 s; under `Cc1cnn(CC(=O)N2CCc3nn(C)c(=O)n3CC2)c1`, 577 s. As to `CCN(CC)CCNC(=O)C1CCN(C2=NS(=O)(=O)C(c3ccc(Cl)cc3)=C2C)CC1`, the RP-LC retention time worked out at 658 s. Under `COc1ccc(NC(=O)c2cnc(N3CCN(C4CCCCC4)CC3)nc2N)cc1` stands 631 s. Under `CCCCn1nnc(NCc2ccc(-c3cccc(Cl)c3)o2)n1` stands 1150 s.

Compound `Cc1ccccc1N(C)C(=O)C1CCCN(c2ncnc3c2nc2n3CCCCC2)C1` (centres undefined) yielded an RP-LC retention time of 870 s.

Turning to `Cc1ccccc1Nc1c(-c2ccc(N3CCOCC3)cc2)nc2ccccn12`, the RP-LC retention time is 712 s. Under `CC(C)CC(=O)Nc1ccc(-n2cnc(C(=O)N3CCc4ccccc4C3)c2)nc1` stands 817 s; under `COc1ccc(C2CC(=O)c3c(C)nc(N4CCN(c5ccccn5)CC4)nc3C2)cc1OC` (centres undefined), 676 s; under `COc1ccc(NC(=O)Cn2cc(C(=O)N3CCCCC3)c(=O)c3ccc(C)nc32)cc1`, 713 s. Under `O=C(c1ccc(-c2cccnc2)nc1)N1CCN(c2ccccc2Cl)CC1` stands 764 s. Under `O=C(c1ccco1)N1CCCN(c2ccc(=O)n(-c3ccccc3)n2)CC1` stands 684 s; under `O=c1cc(-c2cc(O)c(O)c([C@@H]3O[C@H](CO)[C@@H](O)[C@H](O)[C@H]3O)c2)oc2cc(O[C@@H]3O[C@H](CO)[C@@H](O)[C@H](O)[C@H]3O)cc(O)c12`, 648 s. In turn, `Cc1cccc(N2CCN(C(=O)C3CCCN(c4cnc5nccnc5c4)C3)CC2)c1` (centres undefined) returned an RP-LC retention time of 775 s.

For the compound `CCC(C)NC(=O)Cn1cccc(-c2nc(-c3ccc(Br)cc3)no2)c1=O` (centres undefined), the RP-LC retention time came to 870 s. In turn, `CCOC(=O)N1CCN(C(=O)CSc2nncn2C)CC1` gave an RP-LC retention time of 560 s. Next, `O=C(CSc1nnc(-c2ccc(Cl)cc2)o1)Nc1nccs1`: 867 s. As for `O=C(CCC1CCN(c2cc(NC3CC3)ncn2)CC1)NCc1ccc(F)c(Cl)c1`, the RP-LC retention time worked out at 712 s. Under `COc1ccc(-c2nc(-c3cccc(-c4ccnn4C)c3)no2)c(OC)c1` stands 1030 s. Next, `Cc1noc2nc(CCC(=O)NCc3ccc(Cl)cc3)nc(N3CCCC3)c12`: 819 s; `O=C(NC1CCCC1)C1c2ccccc2C(=O)N1Cc1ccc(F)cc1` (centres undefined): 862 s.
